# Reference: patent US20060039856A1, “Magnetic resonance with stimulation” (McLean Hospital Corporation, priority 2001, published 2006)
# Test system: right and left V1 (primary visual cortex) BOLD signal
# Assay: BOLD fMRI of visual cortex during red and blue photic stimulation after oral drug or placebo
# Details: for mean BOLD signal change, higher in drug than in placebo condition: all trials, 2.5 mg oral
smiles,measurement,setting,value
"C[C@H](N)Cc1ccccc1.C[C@H](N)Cc1ccccc1.O=S(=O)(O)O [d-amphetamine, d-amphetamine sulfate]","mean BOLD signal change, higher in drug than in placebo condition","blue light 0.12 lux, drug vs placebo (1.60%)",28%
same,effect of time following drug administration on BOLD signal response (linear regression),"blue light, Z=-2.471, P=0.013, decreasing BOLD signal over time",significant effect of time
same,"mean BOLD signal change, higher in drug than in placebo condition","red light 0.12 lux, drug vs placebo (0.95%)",30%
same,effect of time following drug administration on BOLD signal response (linear regression),"red light, Z=-0.470, P=0.638",no significant effect of drug over time
